Test results: article PMC4843002, “Identification of pyrazolopyridazinones as PDEδ inhibitors” (Nature Communications, 2016)
pIC50: −log10 of the molar value.

Assays:
[1] = test system: PANC-1; assay: CellTiter-Glo cell viability; assay type: cell-based, human; conditions: PANC-1, CellTiter-Glo, n = 10
Protocol: (§1) Biochemical and Pharmacological Assays
(§2) Determination of cell viability using CellTiter-Glo®
(§3) Cells were seeded on day 1 at 500 cells per well to assure assay linearity and optimal signal intensity. After incubation for 24h in humidified incubator at 37°C, 5% CO2, compounds / DMSO were added at different concentrations. Cells were further incubated for 72 h at 37°C and 5% CO2. Cells treated with the compound vehicle (DMSO) […].
(§4) At day 5 the CellTiter-Glo® Reagent was prepared according to the instructions of the manufacturer (Promega): The Reagent was mixed 1:1 with cell culture medium.
(§5) Thereon, mixture and assay plates were equilibrated at room temperature for 20 min.
(§6) Equal volumes of the reagent-medium-mixture were added to the volume of culture medium present in each well. The plates were mixed at 200 rpm for 2 minutes on an orbital shaker and afterwards incubated at room temperature for 10 minutes.
(§7) Following incubation the luminescence was recorded on a Victor microplate reader (Perkin Elmer) using a 200 ms integration time. The data was analyzed with Excel using the XLFIT Plugin (dose response Fit 205) for IC50-determination.
(§8) As quality control the Z´ -factor was calculated from 16 positive and negative control values. Only assay results showing a Z´ -factor ≥ 0.5 were used for further analysis.

[2] = test system: Panc-Tu-I; assay: CellTiter-Glo cell viability; assay type: cell-based, human
Protocol: as §1, §2, §3, §4, §5, §6, §7, §8

[3] = Homo sapiens, 72 h, read-out: IC50 anti-proliferative activity

Compound `c1ccc(Cn2c(-c3ccc(OC[C@H](C4CCNCC4)n4c(-c5ccccc5)nc5ccccc54)cc3)nc3ccccc32)cc1` [Deltarasin, reference compound] has a pIC50 [1, 3] of 5.18, a Hill coefficient [1] of -10.8 and a pIC50 [2, 3] of 5.32. It also gave a Hill coefficient ([2]; Panc-Tu-I, CellTiter-Glo, n = 14) of -5.3.
